In patent US6737383B1, “Herbicidal oxadiazolidines” (priority 1999, dated 2004):

Columns and labels:
[1] = tested on: blackgrass; experiment: Test B pre/postemergence blackgrass; type: in vivo, Alopecurus myosuroides
Outline: (§1)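 Response is a visual 0-to-10 score relative to untreated plants, where 0 means no effect and 10 means complete control, taken twelve to sixteen days after application. Treatments went onto soil at planting and onto foliage of 1- to 4-leaf plants, using a surfactant-containing non-phytotoxic solvent.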

[2] = tested on: pigweed; experiment: Test B pre/postemergence pigweed; type: in vivo, Amaranthus retroflexus
Outline: as §1

[3] = tested on: crabgrass; experiment: Test B pre/postemergence crabgrass; type: in vivo, Digitaria sanguinalis
Outline: as §1

[4] = tested on: bamyardgrass; experiment: Test B flood test barnyardgrass; type: in vivo, Echinochloa crus-galli
Outline: (§2)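 Flood test on plants grown to the 2-leaf stage; treated plants kept in greenhouse twelve to sixteen days, then visually rated against controls on a 0 (no effect) to 10 (complete control) scale.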

[5] = tested on: rape; experiment: Test B pre/postemergence rape; type: in vivo, Brassica napus
Outline: as §1

[6] = tested on: rice; experiment: Test B flood test rice; type: in vivo, Oryza sativa
Outline: as §2

[7] = tested on: surinam grass; experiment: Test B pre/postemergence surinam grass; type: in vivo, Brachiaria decumbens
Outline: as §1

[8] = tested on: giant foxtail; experiment: Test B pre/postemergence giant foxtail; type: in vivo, Setaria faberii
Outline: as §1

[9] = tested on: wild oat; experiment: Test B pre/postemergence wild oat; type: in vivo, Avena fatua
Outline: as §1

[10] = tested on: smallflower flatsedge; experiment: Test B flood test smallflower flatsedge; type: in vivo, Cyperus difformis
Outline: as §2

[11] = tested on: bedstraw; experiment: Test B pre/postemergence bedstraw; type: in vivo, Galium aparine; details: Postemergence
Outline: as §1

[12] = tested on: sugar beet; experiment: Test B pre/postemergence sugar beet; type: in vivo, Beta vulgaris
Outline: as §1

[13] = tested on: wheat; experiment: Test B pre/postemergence wheat; type: in vivo, Triticum aestivum
Outline: as §1

[14] = tested on: purple nutsedge; experiment: Test B pre/postemergence purple nutsedge; type: in vivo, Cyperus rotundus
Outline: as §1

[15] = tested on: corn; experiment: Test B pre/postemergence corn; type: in vivo, Zea mays
Outline: as §1

[16] = tested on: morningglory; experiment: Test B pre/postemergence morningglory; type: in vivo, Ipomoea hederacea
Outline: as §1

[17] = Postemergence, Rate 62 g/ha, scale 0 to 10, 0 is no effect, 10 is complete control
[18] = Postemergence, Rate 125 g/ha, scale of 0 to 10 where 0 is no effect and 10 is complete control
[19] = Postemergence, Rate 250 g/ha, scale of 0 to 10, 0 is no effect, 10 is complete control
[20] = Preemergence, Rate 62 g/ha, scale of 0 to 10 where 0 is no effect and 10 is complete control
[21] = Preemergence, Rate 125 g/ha, scale of 0 to 10 where 0 is no effect and 10 is complete control
[22] = Preemergence, Rate 250 g/ha, scale 0 to 10 (0 no effect, 10 complete control)
[23] = Preemergence, Rate 500 g/ha, scale of 0 to 10 where 0 is no effect and 10 is complete control
[24] = Rate 500 g/ha, Postemergence, scale 0 to 10, 0 is no effect, 10 is complete control
[25] = Rate 62 g/ha, flood test species, Pre-emergence, visual evaluation after twelve to sixteen days
[26] = Rate 125 g/ha, under heading Pre-emergence, flood test species, visual evaluation after twelve to sixteen days
[27] = Rate 250 g/ha, Pre-emergence (flood test species), scale 0 to 10, 0 is no effect, 10 is complete control
[28] = Rate 500 g/ha, Pre-emergence section of Table B, 0 to 10 scale (0 no effect, 10 complete control)

SMILES: CC(C)N(C(=O)n1oc(=O)n(CC2CCCCO2)c1=O)c1ccccc1 (stereo not shown) [Compound 659]
- Plant response rating, Blackgrass [1, 17]: 1
- Blackgrass plant response rating [1, 18]: 6
- Blackgrass plant response rating [1, 19]: 7
- Blackgrass plant response rating [1, 20]: 3
- Blackgrass plant response rating [1, 21]: 6
- Plant response rating, Blackgrass [1, 22]: 7
- Plant response rating, Blackgrass [1, 23]: 9
- Blackgrass plant response rating [1, 24]: 7
- Plant response rating, Redroot pigweed [2, 17]: 0
- Redroot pigweed plant response rating [2, 18]: 0
- Redroot pigweed plant response rating [2, 20]: 6
- Redroot pigweed plant response rating [2, 21]: 6
- Plant response rating, Redroot pigweed [2, 22]: 9
- Plant response rating, Redroot pigweed [2, 23]: 10
- Redroot pigweed plant response rating [2, 24]: 7
- Plant response rating, Crabgrass [3, 17]: 1
- Crabgrass plant response rating [3, 18]: 6
- Crabgrass plant response rating [3, 19]: 6
- Crabgrass plant response rating [3, 20]: 8
- Crabgrass plant response rating [3, 21]: 8
- Plant response rating, Crabgrass [3, 23]: 10
- Crabgrass plant response rating [3, 24]: 8
- Plant response rating, Barnyardgrass (0 to 10 scale, 0 is no effect, 10 is complete control) [4, 25]: 0
- Barnyardgrass plant response rating (0 to 10 scale, 0 is no effect, 10 is complete control) [4, 26]: 2
- Barnyardgrass plant response rating [4, 27]: 2
- Barnyardgrass plant response rating [4, 28]: 7
- Plant response rating, Rape [5, 17]: 0
- Rape plant response rating [5, 18]: 0
- Rape plant response rating [5, 20]: 0
- Rape plant response rating [5, 21]: 0
- Plant response rating, Rape [5, 22]: 2
- Plant response rating, Rape [5, 23]: 10
- Rape plant response rating [5, 24]: 1
- Plant response rating, Rice (0 to 10 scale, 0 is no effect, 10 is complete control) [6, 25]: 0
- Rice plant response rating (0 to 10 scale, 0 is no effect, 10 is complete control) [6, 26]: 0
- Rice plant response rating [6, 27]: 0
- Rice plant response rating [6, 28]: 0
- Plant response rating, B. signalgrass [7, 17]: 0
- Plant response rating, B. signalgrass [7, 18]: 5
- B. signalgrass plant response rating [7, 19]: 5
- B. signalgrass plant response rating [7, 20]: 2
- B. signalgrass plant response rating [7, 21]: 4
- Plant response rating, B. signalgrass [7, 22]: 4
- Plant response rating, B. signalgrass [7, 23]: 8
- B. signalgrass plant response rating [7, 24]: 8
- Plant response rating, Giant foxtail [8, 17]: 5
- Giant foxtail plant response rating [8, 18]: 7
- Giant foxtail plant response rating [8, 19]: 8
- Giant foxtail plant response rating [8, 20]: 9
- Giant foxtail plant response rating [8, 21]: 9
- Plant response rating, Giant foxtail [8, 22]: 9
- Plant response rating, Giant foxtail [8, 23]: 10
- Giant foxtail plant response rating [8, 24]: 8
- Plant response rating, Wild oats [9, 17]: 0
- Wild oats plant response rating [9, 18]: 0
- Wild oats plant response rating [9, 20]: 0
- Wild oats plant response rating [9, 21]: 0
- Plant response rating, Wild oats [9, 22]: 3
- Plant response rating, Wild oats [9, 23]: 9
- Wild oats plant response rating [9, 24]: 3
- Plant response rating, S. Flatsedge (0 to 10 scale, 0 is no effect, 10 is complete control) [10, 25]: 0
- S. Flatsedge plant response rating (0 to 10 scale, 0 is no effect, 10 is complete control) [10, 26]: 0
- S. Flatsedge plant response rating [10, 27]: 0
- S. Flatsedge plant response rating [10, 28]: 5
- Plant response rating, Bedstraw ([11]; Rate 62 g/ha, scale 0 to 10, 0 is no effect, 10 is complete control): 0
- Bedstraw plant response rating ([11]; Rate 125 g/ha, scale of 0 to 10 where 0 is no effect and 10 is complete control): 0
- Plant response rating, Sugarbeets [12, 17]: 0
- Sugarbeets plant response rating [12, 18]: 0
- Sugarbeets plant response rating [12, 20]: 0
- Sugarbeets plant response rating [12, 21]: 0
- Plant response rating, Sugarbeets [12, 22]: 0
- Plant response rating, Sugarbeets [12, 23]: 5
- Sugarbeets plant response rating [12, 24]: 4
- Plant response rating, Wheat [13, 17]: 0
- Wheat plant response rating [13, 18]: 0
- Wheat plant response rating [13, 20]: 0
- Wheat plant response rating [13, 21]: 0
- Plant response rating, Wheat [13, 22]: 2
- Plant response rating, Wheat [13, 23]: 7
- Wheat plant response rating [13, 24]: 5
- Plant response rating, Nutsedge [14, 17]: 0
- Nutsedge plant response rating [14, 18]: 0
- Nutsedge plant response rating [14, 20]: 0
- Nutsedge plant response rating [14, 21]: 0
- Plant response rating, Nutsedge [14, 22]: 0
- Plant response rating, Nutsedge [14, 23]: 0
- Nutsedge plant response rating [14, 24]: 0
- Plant response rating, Corn [15, 17]: 0
- Corn plant response rating [15, 18]: 0
- Corn plant response rating [15, 19]: 4
- Corn plant response rating [15, 20]: 0
- Corn plant response rating [15, 21]: 0
- Plant response rating, Corn [15, 22]: 7
- Plant response rating, Corn [15, 23]: 9
- Corn plant response rating [15, 24]: 6
- Plant response rating, Morningglory [16, 17]: 4
- Morningglory plant response rating [16, 18]: 10
- Morningglory plant response rating [16, 19]: 10
- Morningglory plant response rating [16, 20]: 0
- Morningglory plant response rating [16, 21]: 0
- Plant response rating, Morningglory [16, 22]: 0
- Plant response rating, Morningglory [16, 23]: 6
- Morningglory plant response rating [16, 24]: 10
